Reference: article PMC8073907, “Peptide targeting of lysophosphatidylinositol-sensing GPR55 for osteoclastogenesis tuning” (Cell Communication and Signaling : CCS, 2021)

How the values were obtained:
[1] = test system: Gpr55 mRNA in RAW264.7 cells; assay: Modulation of Gpr55 mRNA levels by receptor ligands in RANKL-treated RAW264.7 cells; format: cell-based, murine; conditions: 72 h; 0.5 μM ML-191, 0.5 μM CBD, 1 μM soybean LPI; versus RANKL alone
Method: Total RNA was extracted using RNeasy isolation kits, cDNAs were obtained using QuantiTect Reverse Transcription kits, and real-time PCRs were performed with QuantiTect SYBR Green PCR kits (all from Qiagen, Hilden, Germany), according to the manufacturer instructions. The primers used for the real-time PCRs and their annealing temperatures are listed in the Additional file 1: Table S1. Human hypoxanthine phosphoribosyltransferase 1 (HPRT1) or murine β2-microglobulin were followed as housekeeping genes. The real-time PCR programme consisted of an initial 15 min at 95 °C, and then 45 cycles as follows: 94 °C for 15 s, annealing temperature of each primer for 30 s, and 72 °C for 30 s. The real-time PCR machine used was a LightCycler 480 Instrument II (Roche, Indianapolis, IN, USA).
For the osteoclastogenesis in-vitro assay, RAW264.7 cells were plated in differentiation medium (α-MEM with 10% heat-inactivated FBS, 2 mM L-glutamine, 100 U/mL penicillin, and 100 ug/mL streptomycin) at a density of 5 × 10^3 cells/well in 24-well plates on coverslips for morphological analysis, or at 2 × 10^4 cells/well in six-well plates for RNA extraction. Twenty-four hours later and every 48 h, the medium was replaced and the cells were treated with 15–30 ng/mL RANKL with DMSO and/or PBS as carriers, or with GPR55 antagonists/ agonists (0.5 µM ML-191, 30 µM O1918, 0.5 µM CBD, 0.5 μM CID16020046 1 µM soybean LPI, 1 μM ML-184), or with the peptides (150 nM peptide-P1; or the irrelevant peptide, Irr_P). Twenty-four hours after the last addition, the cells were fixed with 4% paraformaldehyde for morphological analyses or harvested for RNA extraction (see above).

[2] = test system: ssGPR55-Q87A; assay: GPR55-internalisation assay, Q87A mutant (FACS); format: cell-based, human; conditions: HeLa, 10 µM soybean LPI, 15 min, three independent experiments
Source text: (§1) The construct of haemagglutinin (HA)-tagged human GPR55 in pcDNA3 (HA-GPR55) was a gift from Prof. K. Mackie, Indiana University, Bloomington, IN, USA [39], while the construct ss-3 × HA-GPR55 in pcDNA3.1 (ssGPR55) with a triple HA tag at the N-terminus and an optimised signal sequence (ss, derived from amino acids 1–33 of the human growth hormone: […]) for efficient surface expression was from Prof. A. Irving, Dundee University, UK [40]. For both constructs, mutations were introduced by site-directed mutagenesis using QuickChange kits (Stratagene, La Jolla, CA, USA), according to the manufacturer instructions. The primers for the K80A mutation were 5′-[…]-3′ and 5′-[…]-3′ (Tm, 70.6 °C), and for Q87A were 5′-[…]-3′ and 5′-[…]-3′ (Tm, 73.1 °C).
(§2) HeLa cells were plated at 1.5 × 10^5 cells/well in six-well plates in their growth medium without antibiotics. […]
(§3) For the GPR55-internalisation assay, after stimulation, the HeLa cells were washed twice with cold HBSS^++, stained while adhered with the monoclonal anti-HA antibody (1:1000) in PBS plus 3% BSA for 1 h on ice, washed three times with cold PBS, incubated with the Alexa488-tagged anti-mouse antibody (1:800) in PBS plus 3% BSA for 45 min on ice. […] The collected cells were centrifuged at 300×g, suspended in PBS plus 3% BSA, and analysed by FACS.

[3] = test system: ssGPR55-K80A; assay: GPR55-internalisation assay, K80A mutant (FACS); format: cell-based, human; conditions: ssGPR55-K80A, HeLa; 10 µM soybean LPI, 15 min; three independent experiments
Source text: as §1, §2, §3

## lysophosphatidylinositol [LPI]
[1]
  further enhancement of RANKL-stimulated Gpr55 mRNA levels: 0.5 -fold
[2]
  reduction of cell-surface level of receptor: 15%
[3]
  change of cell-surface level of receptor: not changed
